Laboratory results published in US20230312473A1, “PROCESS FOR THE PREPARATION OF BIHETEROARYL COMPOUNDS AND CRYSTAL FORMS THEREOF” (Genentech, Inc., priority 2020, published 2023).

Key:
Type in all cases: physicochemical
[1] = Solubility of compound I free base in MIBK
Procedure: In one aspect, the dissolution solvent is MIBK. The solubility of compound I free base in MIBK is about 8.2 wt. % at 90° C., about 5.2 wt. % at 80° C., about 4 wt. % at 70° C., about 3 wt. % at 60° C., about 2 wt. % at 50° C., about 1.4 wt. % at 40° C., about 1 wt. % at 30° C., about 0.9 wt. % at 20° C., about 0.6 wt. % at 10° C., about 0.4 wt. % at 0° C., and about 0.2 wt. % at −10° C. In some aspects, a 6.5 wt. % to 7.5 wt. % solution of compound I free base in MIBK is formed at 90° C. Following filtration at about 90° C., the solution may be cooled to about 75° C. following by addition of seed crystals to form a slurry, and optionally held (aged) at that temperature for a period of time, such as from about 0.5 to about 2 hours. The slurry may then be cooled, such as for instance to about −10° C., and aged at that temperature for a period of time, such as from about 2 to about 10 hours. Solid crystallized compound I may be isolated, and washed with chilled MIBK (e.g., at about 0° C. to about 10° C.) and then with chilled alcohol, such as ethanol (e.g., at about 0° C. to about 10° C.). Crystalline compound I may be dried at a temperature of from about 40° C. to about 70° C. (e.g., 60° C.) under vacuum (e.g., about 20 mbar or less) until a constant weight is achieved.

[2] = Mechanical stress evaluation: dynamic vapor sorption (DVS)
Procedure: (§1) Compound 1, produced generally according to the method of Example 5, was evaluated for changes induced mechanical stress conditions, where crystallinity was evaluated by XRPD and where thermoanalytic characteristics were measured by differential scanning calorimetry (“DSC”), thermogravimetric analysis (“TGA”) and dynamic vapor sorption (“DVS”).
(§2) About 500 mg of compound 1 was dry grinded for about 5 minutes at ambient conditions with a mortar and pestle in order to simulate shear stresses encountered during a dry granulation. […] Furthermore, thermoanalytic data as measured by DSC, TGA, and DVS was only marginally different from compound 1 starting material (see Table 12 below).
(§3) The effect of pressure on compound 1 was performed to investigate whether phase transformation could occur during tableting. The conditions were 1.8 T/5 mm compact, 900 MPa, about 30 mg of compound 1, and a dwell time of about 6 seconds). The tablets were analyzed without further treatment and after gentle crushing of the tablets with a pestle. […] FIG. 2 pattern (b) is the XRPD pattern for crushed tablets. FIG. 2 pattern (c) is the XRPD pattern for tablets that were not crushed.
(§4) To simulate wet milling, wet manual grinding experiments were done. About 500 mg of compound 1 and about 0.5 mL water were kneaded for about 5 minutes with a mortar and pestle. About 100 mg of the wet material was analyzed by XRPD. The remainder of the material was dried overnight in an oven at 50° C. and ambient pressure. The dried material was analyzed by […], DSC, TGA, and DVS.

[3] = Solubility of compound (1) in solvents at 0° C. and the respective maximum process temperature; conditions: for Solubility at max temp / Solubility at 0° C.: Form A
Excerpt: Prior art processes for preparing compound (1) used isopropyl acetate for final crystallization, having a yield of 84% at a relatively low concentration of 3.0%-w/w. […] It was known from previous qualitative experimental data as well as solubility prediction (numerical simulation) that the possible list is reduced since the solubility of GDC-0134 in alcohols is too low. From a process design perspective, a simple cooling crystallization is preferred over other designs like antisolvent or evaporative crystallization especially because of easier process control. […] Mainly esters but also acetonitrile, methyl isobutyl ketone (MIBK), and 2-MeTHF were on the shortlist for precise solubility determination. The solubility of compound (1) in these solvents is Table 5 for 0° C. and the respective maximum process temperatures. […] While the solubility in acetonitrile is very low even for high temperatures, mixtures of 2-MeTHF and acetonitrile show a synergistic effect at least for a 1:1 mixture. The solubility at 70° C. is the highest among the investigated systems, and the theoretical yield is close to 90%. Due to concerns with regard to the efficient removal of acetonitrile to acceptable levels after drying, 2-MeTHF/acetonitrile-mixtures were not further investigated, though. MIBK offered the highest theoretical yield plus a significant increase in concentration compared to iPrOAc and it was selected for a more detailed investigation

[4] = Mechanical stress evaluation: thermogravimetric analysis (TGA)
Procedure: as §1, §2, §3, §4

[5] = after Dry Granulation (dry grinding about 5 minutes, mortar and pestle)
[6] = after Wet Granulation (wet manual grinding with water, dried at 50° C.)
[7] = untreated compound 1 starting material

With `Nc1ncc(-c2cc(N3C[C@@H]4C[C@H]3CO4)nc(N3CCC(F)(F)C3)n2)cc1OC(F)F` [Compound 1, 5-(6-((1S,4S)-2-oxa-5-azabicyclo[2.2.1]heptan-5-yl)-2-(3,3-difluoropyrrolidin-1-yl)pyrimidin-4-yl)-3-(difluoromethoxy)pyridin-2-amine] the “solubility in MIBK” value ([1]; 0° C.) was “about 0.4 wt. %”, the “solubility in MIBK” value ([1]; 10° C.) was “about 0.6 wt. %” and the “solubility in MIBK” value ([1]; 20° C.) was “about 0.9 wt. %”. For the same compound, the “solubility in MIBK” value ([1]; 30° C.) was “about 1 wt. %”, the “solubility in MIBK” value ([1]; 40° C.) was “about 1.4 wt. %” and the “solubility in MIBK” value ([1]; 50° C.) was “about 2 wt. %”. For the same compound, the “solubility in MIBK” value ([1]; 60° C.) was “about 3 wt. %”, the “solubility in MIBK” value ([1]; 70° C.) was “about 4 wt. %” and the “solubility in MIBK” value ([1]; 80° C.) was “about 5.2 wt. %”. The “solubility in MIBK” value ([1]; 90° C.) was “about 8.2 wt. %”, the “solubility in MIBK” value ([1]; −10° C.) was “about 0.2 wt. %” and the “DVS Δm (0-90% RH)” value [2, 5] was 0.1% m/m. For the same compound, the “DVS Δm (0-90% RH)” value ([2]; after Tableting (900 MPa)) was under 0.1% m/m, the “DVS Δm (0-90% RH)” value ([2]; after Tableting (crushing)) was 0.1% m/m and the “DVS Δm (0-90% RH)” value [2, 6] was under 0.1% m/m. The “hygroscopicity by DVS” value ([2]; compacted (tableted) samples versus starting material) was “did not show a significant increase of hygroscopicity”, the “DVS Δm (0-90% RH)” value [2, 7] was under 0.1% m/m and the solubility in alcohols ([3]; previous qualitative experimental data and solubility prediction) was “too low”. The “Solubility at max temp” value ([3]; solvent: 2-MeTHF:MeCN (1:1), 70 ° C.) was 7.3 w/w %, the “Solubility at 0° C.” value ([3]; solvent: 2-MeTHF:MeCN (1:1)) was 0.8 w/w % and the “Solubility at max temp” value ([3]; solvent: 2-MeTHF:MeCN (3:1), 70 ° C.) was 2.2 w/w %. The “Solubility at 0° C.” value ([3]; solvent: 2-MeTHF:MeCN (3:1)) was 1.7 w/w %, the “Solubility at max temp” value ([3]; solvent: 2-MeTHF, 70 ° C.) was 5.2 w/w % and the “Solubility at 0° C.” value ([3]; solvent: 2-MeTHF) was 1.6 w/w %. The “Solubility at max temp” value ([3]; solvent: Acetonitrile, 70 ° C.) was 1.4 w/w %, the “Solubility at 0° C.” value ([3]; solvent: Acetonitrile) was 0.5 w/w % and the “Solubility at max temp” value ([3]; solvent: Ethylacetate, 70 ° C.) was 4.8 w/w %. The “Solubility at 0° C.” value ([3]; solvent: Ethylacetate) was 0.9 w/w %, the “Solubility at max temp” value ([3]; solvent: MIBK, 80 ° C.) was 5.2 w/w % and the “Solubility at 0° C.” value ([3]; solvent: MIBK) was 0.4 w/w %. The “Solubility at max temp” value ([3]; solvent: Methylacetate, 50 ° C.) was 4.9 w/w %, the “Solubility at 0° C.” value ([3]; solvent: Methylacetate) was 1.3 w/w % and the “Solubility at max temp” value ([3]; solvent: i-propyl acetate, 80 ° C.) was 4.2 w/w %. The “Solubility at 0° C.” value ([3]; solvent: i-propyl acetate) was 0.4 w/w %, the “Solubility at max temp” value ([3]; solvent: n-propyl acetate, 80 ° C.) was 4.3 w/w % and the “Solubility at 0° C.” value ([3]; solvent: n-propyl acetate) was 0.8 w/w %. The “TGA Total wt. loss” value [4, 5] was 0.2% m/m, the “TGA Total wt. loss” value ([4]; after Tableting (900 MPa)) was 0.3% m/m and the “TGA Total wt. loss” value ([4]; after Tableting (crushing)) was 0.3% m/m. For the same compound, the “TGA Total wt. loss” value [4, 6] was 0.2% m/m and the “TGA Total wt. loss” value [4, 7] was 0.1% m/m.
